Assay results reported in ChEMBL document CHEMBL5104196, “Discovery of Novel, Potent, and Selective Small-Molecule Menin-Mixed Lineage Leukemia Interaction Inhibitors through Attempting Introduction of Hydrophilic Groups” (J Med Chem, 2022).
≈ marks a conversion by molar mass, not a printed value. Calls of active or inactive are those of the source. The calls are words filed in the database; no cut-off is given here.

What was measured:
[1] = molecular target: Menin/Histone-lysine N-methyltransferase MLL (Homo sapiens, UniProt O00255); assay: Inhibition of Menin/fluorescein labeled MLL(4 to 43 residues) (unknown origin) protein protein interaction incubated for 1 hr by fluorescence polarization-based competitive binding assay
Sequence of Menin/Histone-lysine N-methyltransferase MLL (O00255 whole entry, the tested form may be a part): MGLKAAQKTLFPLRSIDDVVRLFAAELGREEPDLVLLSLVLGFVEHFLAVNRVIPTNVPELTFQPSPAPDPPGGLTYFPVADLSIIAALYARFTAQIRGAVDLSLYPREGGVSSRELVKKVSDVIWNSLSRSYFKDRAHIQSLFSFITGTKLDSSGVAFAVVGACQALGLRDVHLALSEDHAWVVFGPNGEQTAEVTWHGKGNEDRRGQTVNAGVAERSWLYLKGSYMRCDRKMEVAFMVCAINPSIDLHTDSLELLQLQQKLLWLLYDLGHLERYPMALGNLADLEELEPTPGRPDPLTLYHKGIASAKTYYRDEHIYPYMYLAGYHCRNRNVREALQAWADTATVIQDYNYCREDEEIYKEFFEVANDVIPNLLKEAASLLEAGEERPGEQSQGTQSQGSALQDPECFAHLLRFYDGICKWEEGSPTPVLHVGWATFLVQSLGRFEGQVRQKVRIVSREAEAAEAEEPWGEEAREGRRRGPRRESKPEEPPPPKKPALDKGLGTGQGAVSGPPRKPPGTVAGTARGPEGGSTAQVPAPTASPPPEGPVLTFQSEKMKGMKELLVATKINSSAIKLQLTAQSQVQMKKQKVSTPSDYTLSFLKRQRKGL
Sequence of Menin/Histone-lysine N-methyltransferase MLL (Q03164 1-2718 partner limits assumed): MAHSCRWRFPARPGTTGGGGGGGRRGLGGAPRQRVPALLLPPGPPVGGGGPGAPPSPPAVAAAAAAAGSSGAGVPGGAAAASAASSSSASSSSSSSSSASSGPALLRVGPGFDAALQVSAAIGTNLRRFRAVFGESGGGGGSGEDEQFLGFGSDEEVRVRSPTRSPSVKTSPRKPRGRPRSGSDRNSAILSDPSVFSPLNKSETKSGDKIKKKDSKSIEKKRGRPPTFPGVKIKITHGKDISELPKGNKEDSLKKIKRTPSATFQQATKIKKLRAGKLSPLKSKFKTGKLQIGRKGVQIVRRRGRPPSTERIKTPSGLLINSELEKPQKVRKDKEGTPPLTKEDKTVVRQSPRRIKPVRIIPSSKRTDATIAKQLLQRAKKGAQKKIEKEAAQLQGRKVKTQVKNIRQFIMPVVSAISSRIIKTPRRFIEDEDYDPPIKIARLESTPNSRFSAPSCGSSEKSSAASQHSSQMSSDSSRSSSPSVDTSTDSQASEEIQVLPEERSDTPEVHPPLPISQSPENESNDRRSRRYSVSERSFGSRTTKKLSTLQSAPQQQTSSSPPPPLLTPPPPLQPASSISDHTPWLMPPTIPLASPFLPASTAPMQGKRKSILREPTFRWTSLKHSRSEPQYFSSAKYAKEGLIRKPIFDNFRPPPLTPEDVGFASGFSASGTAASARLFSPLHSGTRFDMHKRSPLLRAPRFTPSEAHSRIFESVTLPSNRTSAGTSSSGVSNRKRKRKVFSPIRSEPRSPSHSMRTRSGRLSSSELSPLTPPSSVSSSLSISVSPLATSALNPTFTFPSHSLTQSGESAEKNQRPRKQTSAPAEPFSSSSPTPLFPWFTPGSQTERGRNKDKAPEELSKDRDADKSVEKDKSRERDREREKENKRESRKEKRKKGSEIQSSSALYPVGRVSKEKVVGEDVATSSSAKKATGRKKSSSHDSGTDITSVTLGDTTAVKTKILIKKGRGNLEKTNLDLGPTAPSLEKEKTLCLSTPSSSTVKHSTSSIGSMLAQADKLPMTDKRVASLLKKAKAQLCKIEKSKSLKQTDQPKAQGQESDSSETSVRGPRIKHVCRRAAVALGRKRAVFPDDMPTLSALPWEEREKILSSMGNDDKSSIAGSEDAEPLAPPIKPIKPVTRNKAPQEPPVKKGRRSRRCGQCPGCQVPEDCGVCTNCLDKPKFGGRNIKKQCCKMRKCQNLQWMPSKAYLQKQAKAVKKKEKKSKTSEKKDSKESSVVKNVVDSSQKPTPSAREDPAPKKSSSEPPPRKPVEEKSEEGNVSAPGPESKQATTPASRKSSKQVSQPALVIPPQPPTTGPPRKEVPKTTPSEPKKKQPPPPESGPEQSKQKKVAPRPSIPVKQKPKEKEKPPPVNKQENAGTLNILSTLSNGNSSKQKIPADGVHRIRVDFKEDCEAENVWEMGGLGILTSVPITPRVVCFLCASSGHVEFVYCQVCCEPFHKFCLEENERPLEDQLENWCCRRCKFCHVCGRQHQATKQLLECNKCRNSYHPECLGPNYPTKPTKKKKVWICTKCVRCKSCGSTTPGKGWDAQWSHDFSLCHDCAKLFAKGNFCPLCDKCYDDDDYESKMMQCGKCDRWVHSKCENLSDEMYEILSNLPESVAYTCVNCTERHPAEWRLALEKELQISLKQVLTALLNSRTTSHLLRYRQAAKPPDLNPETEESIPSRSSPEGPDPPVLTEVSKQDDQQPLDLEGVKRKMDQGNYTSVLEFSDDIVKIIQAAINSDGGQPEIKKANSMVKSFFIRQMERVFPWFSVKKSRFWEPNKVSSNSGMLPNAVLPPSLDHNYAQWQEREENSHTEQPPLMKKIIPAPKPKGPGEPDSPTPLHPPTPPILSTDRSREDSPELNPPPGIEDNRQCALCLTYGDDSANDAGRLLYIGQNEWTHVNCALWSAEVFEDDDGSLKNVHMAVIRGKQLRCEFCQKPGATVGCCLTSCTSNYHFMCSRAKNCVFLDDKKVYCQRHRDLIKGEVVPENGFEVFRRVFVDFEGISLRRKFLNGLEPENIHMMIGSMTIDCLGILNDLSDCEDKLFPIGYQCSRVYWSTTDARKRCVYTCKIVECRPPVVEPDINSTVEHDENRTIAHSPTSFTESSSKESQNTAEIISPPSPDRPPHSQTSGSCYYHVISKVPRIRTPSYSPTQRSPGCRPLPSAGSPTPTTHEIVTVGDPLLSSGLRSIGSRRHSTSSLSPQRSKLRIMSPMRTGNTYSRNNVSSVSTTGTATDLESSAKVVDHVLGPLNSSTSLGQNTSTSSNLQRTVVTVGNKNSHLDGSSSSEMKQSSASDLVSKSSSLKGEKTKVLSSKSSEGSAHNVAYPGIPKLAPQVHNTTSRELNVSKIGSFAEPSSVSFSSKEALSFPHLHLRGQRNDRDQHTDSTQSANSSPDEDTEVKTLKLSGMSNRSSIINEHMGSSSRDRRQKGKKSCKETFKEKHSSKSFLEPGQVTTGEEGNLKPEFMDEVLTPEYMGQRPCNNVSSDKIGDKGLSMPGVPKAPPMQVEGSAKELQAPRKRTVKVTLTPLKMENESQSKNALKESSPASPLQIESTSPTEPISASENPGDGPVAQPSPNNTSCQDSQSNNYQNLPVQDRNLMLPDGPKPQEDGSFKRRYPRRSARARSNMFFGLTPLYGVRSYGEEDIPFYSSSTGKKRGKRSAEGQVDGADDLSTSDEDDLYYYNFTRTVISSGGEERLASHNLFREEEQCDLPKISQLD
Sequence of Menin/Histone-lysine N-methyltransferase MLL (Q03164 2719-3969 partner limits assumed): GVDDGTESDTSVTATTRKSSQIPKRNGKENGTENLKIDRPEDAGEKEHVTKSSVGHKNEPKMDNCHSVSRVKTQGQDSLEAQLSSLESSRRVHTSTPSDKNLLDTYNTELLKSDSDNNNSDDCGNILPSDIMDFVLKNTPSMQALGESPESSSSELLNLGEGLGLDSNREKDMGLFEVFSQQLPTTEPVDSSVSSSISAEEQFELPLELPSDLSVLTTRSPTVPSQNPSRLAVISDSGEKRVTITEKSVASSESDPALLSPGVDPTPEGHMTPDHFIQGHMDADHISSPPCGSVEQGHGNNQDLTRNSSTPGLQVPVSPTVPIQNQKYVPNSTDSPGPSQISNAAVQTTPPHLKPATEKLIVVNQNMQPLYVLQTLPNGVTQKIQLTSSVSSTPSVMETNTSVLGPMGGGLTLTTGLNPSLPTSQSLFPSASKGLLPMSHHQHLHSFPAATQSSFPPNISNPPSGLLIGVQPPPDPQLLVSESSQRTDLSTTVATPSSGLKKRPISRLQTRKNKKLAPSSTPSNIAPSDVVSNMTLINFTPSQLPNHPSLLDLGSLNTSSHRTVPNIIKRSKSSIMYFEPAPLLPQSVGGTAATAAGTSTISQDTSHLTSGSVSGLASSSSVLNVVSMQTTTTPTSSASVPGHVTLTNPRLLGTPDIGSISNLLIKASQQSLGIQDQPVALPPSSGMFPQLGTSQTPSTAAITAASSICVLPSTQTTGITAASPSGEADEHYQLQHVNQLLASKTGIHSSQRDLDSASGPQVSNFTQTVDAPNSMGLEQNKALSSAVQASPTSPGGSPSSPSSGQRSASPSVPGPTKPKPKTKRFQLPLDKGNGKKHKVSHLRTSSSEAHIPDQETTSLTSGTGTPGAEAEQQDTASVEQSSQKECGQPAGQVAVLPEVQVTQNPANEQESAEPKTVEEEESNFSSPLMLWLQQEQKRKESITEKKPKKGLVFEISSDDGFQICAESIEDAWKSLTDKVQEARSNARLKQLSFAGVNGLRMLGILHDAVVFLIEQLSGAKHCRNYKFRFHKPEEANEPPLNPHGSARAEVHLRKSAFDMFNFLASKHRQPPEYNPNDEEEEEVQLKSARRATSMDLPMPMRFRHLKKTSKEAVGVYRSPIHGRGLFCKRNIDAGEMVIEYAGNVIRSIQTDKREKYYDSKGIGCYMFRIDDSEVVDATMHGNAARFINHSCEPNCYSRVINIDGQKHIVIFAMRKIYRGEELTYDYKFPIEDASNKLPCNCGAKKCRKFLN

MV4-11 [2] = assay: Antiproliferative activity against human MV4-11 cells harboring MLL-AF4 assessed as cell growth inhibition measured for 72 hrs by MTT assay; format: functional, cell-based; conditions: MV4-11, 72 h
HL-60 = assay: Antiproliferative activity against human […] assessed as cell growth inhibition measured for 72 hrs by MTT assay; format: functional, cell-based; conditions: HL-60, 72 h
[3] = Solubility of compound in phosphate buffer at pH 7.4 by spectrophotometric analysis; format: physicochemical
MV4-11 [4] = assay: Antiproliferative activity against human MV4-11 cells assessed as reduction in cell viability measured for 3 days by cell counting assay; format: functional, cell-based; conditions: MV4-11, 72 h
MV4-11 [5] = assay: Antiproliferative activity against human MV4-11 cells assessed as reduction in cell viability measured for 3 days followed by replacement with fresh medium of compound and measured after 72 hrs by cell counting assay; format: functional, cell-based; conditions: MV4-11, 72 h
MV4-11 [6] = assay: Induction of cell differentiation in human MV4-11 cells assessed as increase in CD11b expression at 10 uM measured after 7 days by flow cytometric analysis; format: functional, cell-based; conditions: time 7.0 day
MV4-11 [7] = assay: Reversible differentiation arrest in human MV4-11 cells at 0.1 to 10 uM measured after 7 days by flow cytometric analysis; format: functional, cell-based; conditions: dose 0.1-10 µM, time 7.0 day
MV4-11 [8] = assay: Induction of apoptosis in human MV4-11 cells incubated for 24 hrs by annexinV/PI staining based flow cytometry analysis; format: functional, cell-based; conditions: dose 0.1-10 µM, DDE = dose-dependent effect

Row | SMILES | IC50 [1] [nM] | IC50 (MV4-11 [2]) [µM] | IC50 (HL-60) [µM] | solubility [3] [µg/mL] | IC50 (MV4-11 [4]) [µM] | IC50 (MV4-11 [5]) [µM] | Activity (MV4-11 [6]) | Activity (MV4-11 [7]) | Activity (MV4-11 [8])
1 | CN(C)CCOc1ccc2ncnc(NC3CCN(CC4CN(c5ccc(C#N)cc5)C4)CC3)c2n1 | 60 | 1.5 | > 10 | 314 (≈ 645 µM) | – | – | – | – | –
2 | CN(C)C1CCN(c2cc3c(NC4CCN(CC5CN(c6ccc(C#N)cc6)C5)CC4)ncnc3cn2)CC1 | > 10000 | 3 | > 10 | – | – | – | – | – | –
3 | CC(C)(C)OC(=O)N1CC(S(=O)(=O)c2ccc(N3CC(CN4CCC(Nc5ncnc6ccc(Cl)nc56)CC4)C3)cc2)C1 | 120 | 2.3 | > 10 | < 0.6 | – | – | – | – | –
4 | CN1CCN(c2cc3c(NC4CCN(CC5CN(c6ccc(C#N)cc6)C5)CC4)ncnc3cn2)CC1 | > 10000 | 6.7 | > 10 | – | – | – | – | – | –
5 | N#Cc1ccc(N2CC(CN3CCC(Nc4ncnc5cnc(NC6CC6)cc45)CC3)C2)cc1 | > 10000 | > 10 | > 10 | – | – | – | – | – | –
6 | N#Cc1ccc(N2CC(CN3CCC(Nc4ncnc5ccc(NCCO)nc45)CC3)C2)cc1 | > 10000 | > 10 | > 10 | – | – | – | – | – | –
7 | CN1CCN(c2ccc3ncnc(NC4CCN(CC5CN(c6ccc(C#N)cc6)C5)CC4)c3n2)CC1 | 70 | 5.6 | 10 | – | – | – | – | – | –
8 | N#Cc1ccc(N2CC(CN3CCC(Nc4ncnc5ccc(N6CCNCC6)nc45)CC3)C2)cc1 | 180 | 2.2 | > 10 | – | – | – | – | – | –
9 | CC(C)(C)OC(=O)N1CC(S(=O)(=O)c2ccc(N3CC(CN4CCC(Nc5ncnc6cnc(Cl)cc56)CC4)C3)cc2)C1 | > 10000 | > 10 | > 10 | – | – | – | – | – | –
10 | CN(C)C1CCN(c2ccc3ncnc(NC4CCN(CC5CN(c6ccc(C#N)cc6)C5)CC4)c3n2)CC1 | 130 | 9.8 | 10.2 | – | – | – | – | – | –
11 | N#Cc1ccc(N2CC(CN3CCC(Nc4ncnc5cnc(N6CCCC6)cc45)CC3)C2)cc1 | > 10000 | 6.5 | > 10 | – | – | – | – | – | –
12 | CN(C)CCNc1ccc2ncnc(NC3CCN(CC4CN(c5ccc(C#N)cc5)C4)CC3)c2n1 | 970 | 4.4 | > 10 | – | – | – | – | – | –
13 | CC(C)Nc1cc2c(NC3CCN(CC4CN(c5ccc(C#N)cc5)C4)CC3)ncnc2cn1 | 530 | > 10 | > 10 | – | – | – | – | – | –
14 | CN(C)CCN(C)c1ccc2ncnc(NC3CCN(CC4CN(c5ccc(C#N)cc5)C4)CC3)c2n1 | 260 | 3.2 | > 10 | – | – | – | – | – | –
15 | O=S(=O)(c1ccncc1)c1ccc(N2CC(CN3CCC(Nc4ncnc5ccc(Cl)nc45)CC3)C2)cc1 | 30 | 2 | 8.8 | 10 (≈ 18.2 µM) | – | – | – | – | –
16 | CC(C)CNc1cc2c(NC3CCN(CC4CN(c5ccc(C#N)cc5)C4)CC3)ncnc2cn1 | 1970 | > 10 | > 10 | – | – | – | – | – | –
17 | N#Cc1ccc(N2CC(CN3CCC(Nc4ncnc5ccc(OCC(F)(F)F)nc45)CC3)C2)cc1 | > 10000 | 5.6 | > 10 | – | – | – | – | – | –
18 | O=S(=O)(c1ccncc1)c1ccc(N2CC(CN3CCC(Nc4ncnc5cnc(Cl)cc45)CC3)C2)cc1 | > 10000 | 9 | > 10 | – | – | – | – | – | –
19 | CCNCCNc1ccc2ncnc(NC3CCN(CC4CN(c5ccc(C#N)cc5)C4)CC3)c2n1 | > 10000 | > 10 | > 10 | – | – | – | – | – | –

Row | SMILES | IC50 [1] [nM] | IC50 (MV4-11 [2]) [µM] | IC50 (HL-60) [µM] | solubility [3] [µg/mL] | IC50 (MV4-11 [4]) [µM] | IC50 (MV4-11 [5]) [µM] | Activity (MV4-11 [6]) | Activity (MV4-11 [7]) | Activity (MV4-11 [8])
20 | N#Cc1ccc(N2CC(CN3CCC(Nc4ncnc5ccc(Cl)nc45)CC3)C2)cc1 | > 10000 | > 10 | > 10 | < 0.4 | – | – | – | – | –
21 | CCCc1cc2c(N3CCN(C4=NCC(C)(C)S4)CC3)ncnc2s1 | – | 9.2 | > 10 | – | 8.52 | 7.62 | Active | Active | Dde
22 | N#Cc1ccc(N2CC(CN3CCC(Nc4ncnc5ccc(NCCN)nc45)CC3)C2)cc1 | 680 | 9.8 | > 10 | – | – | – | – | – | –
23 | O=S(=O)(c1ccc(N2CC(CN3CCC(Nc4ncnc5ccc(Cl)nc45)CC3)C2)cc1)C1CC1 | 90 | 6.6 | > 10 | 15.9 (≈ 31 µM) | – | – | – | – | –
24 | CCN(CC)CCNc1ccc2ncnc(NC3CCN(CC4CN(c5ccc(C#N)cc5)C4)CC3)c2n1 | 820 | 4.2 | 9.5 | – | – | – | – | – | –
25 | N#Cc1ccc(N2CC(CN3CCC(Nc4ncnc5cnc(Cl)cc45)CC3)C2)cc1 | > 10000 | > 10 | > 10 | – | – | – | – | – | –
26 | O=S(=O)(c1ccc(N2CC(CN3CCC(Nc4ncnc5ccc(Cl)nc45)CC3)C2)cc1)c1ccccn1 | 60 | 2.5 | > 10 | – | – | – | – | – | –
27 | COC(CNc1ccc2ncnc(NC3CCN(CC4CN(c5ccc(C#N)cc5)C4)CC3)c2n1)OC | > 10000 | > 10 | > 10 | – | – | – | – | – | –
28 | CN(C)CCOc1ccc2ncnc(NC3CCN(CC4CN(c5ccc(S(=O)(=O)C6CN(C(=O)OC(C)(C)C)C6)cc5)C4)CC3)c2n1 | 190 | 2 | > 10 | 69.5 (≈ 102 µM) | – | – | – | – | –
29 | CN(C)CCN(C)C1CCN(c2cc3c(NC4CCN(CC5CN(c6ccc(C#N)cc6)C5)CC4)ncnc3cn2)CC1 | 290 | 3.5 | > 10 | – | – | – | – | – | –
30 | N#Cc1ccc(N2CC(CN3CCC(Nc4ncnc5cnc(NC6CCCC6)cc45)CC3)C2)cc1 | 60 | > 10 | > 10 | – | – | – | – | – | –
31 | N#Cc1ccc(N2CC(CN3CCC(Nc4ncnc5ccc(Br)cc45)CC3)C2)cc1 | > 10000 | > 10 | > 10 | – | – | – | – | – | –
32 | N#Cc1ccc(N2CC(CN3CCC(Nc4ncnc5cnc(NCC6CC6)cc45)CC3)C2)cc1 | > 10000 | > 10 | > 10 | – | – | – | – | – | –
33 | N#Cc1ccc(N2CC(CN3CCC(Nc4ncnc5cnc(N6CCCCC6)cc45)CC3)C2)cc1 | 590 | > 10 | > 10 | – | – | – | – | – | –
34 | N#Cc1ccc(N2CC(CN3CCC(Nc4ncnc5cnc(N6CCOCC6)cc45)CC3)C2)cc1 | > 10000 | > 10 | > 10 | – | – | – | – | – | –
35 | N#Cc1ccc(N2CC(CN3CCC(Nc4ncnc5ccc(CC(F)(F)F)cc45)CC3)C2)cc1 | > 10000 | > 10 | > 10 | – | – | – | – | – | –
36 | N#Cc1ccc(N2CC(CN3CCC(Nc4ncnc5cnc(OCC(F)(F)F)cc45)CC3)C2)cc1 | 690 | > 10 | > 10 | – | – | – | – | – | –
37 | CN(C)CCOc1ccc2ncnc(NC3CCN(CC4CN(c5ccc(S(=O)(=O)c6ccncc6)cc5)C4)CC3)c2n1 | 10 | 1.5 | > 10 | 153 (≈ 254 µM) | – | – | – | – | –
